Measured values: patent publication US7495018B2, “Substituted 1,3-thiazole compounds, their production and use” (Takeda Pharmaceutical Company Limited, priority 2000, dated 2009)

| melting point [°C] | SMILES |
| --- | --- |
| 114 to 115 | CCCCCC(=O)Nc1cc(-c2sc(CC)nc2-c2cccc(Cl)c2)ccn1 [Example 88-2, N-[4-[4-(3-chlorophenyl)-2-ethyl-1,3-thiazol-5-yl]-2-pyridyl]hexanamide] |
| 121 to 122 | CCC(=O)Nc1cc(-c2sc(CC)nc2-c2cccc(F)c2)ccn1 [Example 84-5, N-[4-[2-ethyl-4-(3-fluorophenyl)-1,3-thiazol-5-yl]-2-pyridyl]propionamide] |
| 118 to 119 | CCC(=O)Nc1cc(-c2sc(CSC)nc2-c2cccc(Cl)c2)ccn1 [Example 102-3, N-[4-[4-(3-chlorophenyl)-2-(methylthio)methyl-1,3-thiazol-5-yl]-2-pyridyl]propionamide] |
| 171 to 172 | CCC(=O)Nc1cc(-c2sc(-c3ccc(SC)cc3)nc2-c2cccc(C)c2)ccn1 [Example 84-9, N-[4-[4-(3-methylphenyl)-2-[4-(methylthio)phenyl]-1,3-thiazol-5-yl]-2-pyridyl]propionamide] |
| 139 to 140 | CCC(=O)Nc1cc(-c2sc(CC)nc2-c2ccccc2)ccn1 [Example 84-1, N-[4-(2-ethyl-4-phenyl-1,3-thiazol-5-yl)-2-pyridyl]propionamide] |
| 99 to 100 | CCOC(=O)Cc1nc(-c2cccc(Cl)c2)c(-c2ccnc(NC(C)=O)c2)s1 [Example 103-2, ethyl [5-(2-acetylamino-4-pyridyl)-4-(3-chlorophenyl)-1,3-thiazol-2-yl]acetate] |
| 149 to 150 | CC(=O)Nc1cc(-c2scnc2-c2cccc(C)c2)ccn1 [Example 82-11, N-[4-[4-(3-methylphenyl)-1,3-thiazol-5-yl]-2-pyridyl]acetamide] |
| 162 to 163 | CC(=O)Nc1cc(-c2sc(C)nc2-c2cccc(C)c2)ccn1 [Example 82-10, N-[4-[2-methyl-4-(3-methylphenyl)-1,3-thiazol-5-yl]-2-pyridyl]acetamide] |
| 109 to 110 | CCCCC(=O)Nc1cc(-c2sc(CC)nc2-c2cccc(Cl)c2)ccn1 [Example 88-1, N-[4-[4-(3-chlorophenyl)-2-ethyl-1,3-thiazol-5-yl]-2-pyridyl]valeramide] |
| 89 to 91 | Cc1cccc(-c2nc(C(C)OC(=O)c3ccccc3)sc2-c2ccnc(N)c2)c1 (stereo not shown) [Example 99-2, 1-[5-(2-amino-4-pyridyl)-4-(3-methylphenyl)-1,3thiazol-2-yl]ethyl benzoate] |
| 121 to 122 | CCCc1cccc(-c2nc(CC)sc2-c2ccnc(NC(C)=O)c2)c1 [Example 82-9, N-[4-[2-ethyl-4-(3-propylphenyl)-1,3-thiazol-5-yl]-2-pyridyl]acetamide] |
| 84 to 85 | CCCCCC(=O)Nc1cc(-c2sc(CC)nc2-c2cccc(C)c2)ccn1 [Example 87-2, N-[4-[2-ethyl-4-(3-methylphenyl)-1,3-thiazol-5-yl]-2-pyridyl]hexanamide] |

The remaining lines, values behind:

| SMILES | melting point [°C] |
| --- | --- |
| COc1ncccc1C(=O)Nc1nc(-c2cccc(C)c2)c(-c2ccnc(C)c2)s1 [Example Compound 49, 2-methoxy-N-[4-(3-methylphenyl)-5-(2-methyl-4-pyridyl)-1,3-thiazol-2-yl]nicotinamide] | 169 to 170 |
| COc1ccc(C(=O)Nc2nc(-c3cccc(C)c3)c(-c3ccnc(NC4CCCCC4)c3)s2)cn1 [Example Compound 48-1, N-[5-(2-cyclohexylamino-4-pyridyl)-4-(3-methylphenyl)-1,3-thiazol-2-yl]-6-methoxynicotinamide] | 191 to 192 |
| CCc1nc(-c2cccc(Cl)c2)c(-c2ccnc(F)c2)s1 [Example Compound 12, 2-ethyl-4-(3-chlorophenyl)-5-(2-fluoro-4-pyridyl)-1,3-thiazole] | 102 to 103 |
| Cc1cccc(-c2nc(-c3ccc(S(C)(=O)=O)cc3)sc2-c2ccnc(NC3CCCC3)c2)c1 [Example Compound 36-7, N-cyclopentyl-4-[4-(3-methylphenyl)-2-(4-methylsulfonylphenyl)-1,3-thiazol-5-yl]-2-pyridylamine] | 154 to 156 |
| Cc1cc(C)cc(-c2nc(-c3ccc(S(C)(=O)=O)cc3)sc2-c2ccnc(C)c2)c1 [Example Compound 58-1, 4-(3,5-dimethylphenyl)-5-(2-methyl-4-pyridyl)-2-(4-methylsulfonylphenyl)-1,3-thiazole] | 196 to 197 |
| CCOC(=O)Cc1nc(-c2cccc(Cl)c2)c(-c2ccnc(N)c2)s1 [Example Compound 21-2, Ethyl [5-(2-amino-4-pyridyl)-4-(3-chlorophenyl)-1,3-thiazol-2-yl]acetate] | 154 to 155 |
| Cc1cccc(-c2nc(-c3ccccc3F)sc2-c2ccnc(C)c2)c1 [Example Compound 14-3, 2-(2-fluorophenyl)-4-(3-methylphenyl)-5-(2-methyl-4-pyridyl)-1,3-thiazole] | 73 to 74 |
| Cc1cccc(-c2nc(-c3ccc(S(C)(=O)=O)cc3)sc2-c2ccnc(N3CCCC3)c2)c1 [Example Compound 37-4, 4-(3-methylphenyl)-2-(4-methylsulfonylphenyl)-5-[2-(1-pyrrolidinyl)-4-pyridyl]-1,3-thiazole] | 199 to 201 |
| Cc1cccc(-c2nc(N(C)C)sc2-c2ccnc(C)c2)c1 [Example Compound 10, N,N-dimethyl-[4-(3-methylphenyl)-5-(2-methyl-4-pyridyl)-1,3-thiazol-2-yl]amine] | 77 to 79 |
| Cc1cc(C)cc(-c2nc(-c3ccc(S(C)(=O)=O)cc3)sc2-c2cc(C)nc(C)c2)c1 [Example Compound 58-3, 4-(3,5-dimethylphenyl)-5-(2,6-dimethyl-4-pyridyl)-2-(4-methylsulfonylphenyl)-1,3-thiazole] | 217 to 220 |
| Cc1cccc(-c2nc(-c3ccc(F)cc3)sc2-c2ccnc(N)c2)c1 [Example Compound 18-1, 4-[2-(4-fluorophenyl)-4-(3-methylphenyl)-1,3-thiazol-5-yl]-2-pyridylamine] | 160 to 162 |
| CCC(=O)Nc1cc(-c2sc(CC)nc2-c2cccc(Cl)c2)ccn1 [Example Compound 30-8, N-[4-[4-(3-chlorophenyl)-2-ethyl-1,3-thiazol-5-yl]-2-pyridyl]propionamide] | 132 to 133 |
| Cc1cccc(-c2ncsc2-c2ccnc(N)c2)c1 [Example Compound 27-1, 4-[4-(3-methylphenyl)-1,3-thiazol-5-yl]-2-pyridylamine] | 91 to 92 |
| COc1ccc(-c2nc(NC(=O)c3ccccc3)sc2-c2ccnc(N)c2)cc1 [Example Compound 51, N-[5-(2-amino-4-pyridyl)-4-(4-methoxyphenyl)-1,3-thiazol-2-yl]benzamide] | 219 to 222 |
| CNc1nc(-c2cccc(C)c2)c(-c2ccnc(NC3CCCC3)c2)s1 [Example Compound 36-3, N-methyl-[5-(2-cyclopentylamino-4-pyridyl)-4-(3-methylphenyl)-1,3-thiazol-2-yl]amine] | 170 to 172 |
| Cc1cccc(-c2nc(N)sc2-c2ccnc(NC3CCCCC3)c2)c1 [Example Compound 34-2, [5-(2-cyclohexylamino-4-pyridyl)-4-(3-methylphenyl)-1,3-thiazol-2-yl]amine] | 168 to 169 |
| CCC(=O)Nc1cc(-c2sc(C(C)=O)nc2-c2cccc(Cl)c2)ccn1 [Example 107, N-[4-[2-acetyl-4-(3-chlorophenyl)-1,3-thiazol-5-yl]-2-pyridyl]propionamide] | 115 to 117 |
| CCc1nc(-c2ccc(F)c(C)c2)c(-c2ccnc(N)c2)s1 [Example Compound 20-9, 4-[2-ethyl-4-(4-fluoro-3-methylphenyl)-1,3-thiazol-5-yl]-2-pyridylamine] | 134 to 135 |
| Cc1cc(C)cc(-c2nc(NC(=O)c3ccc(C)nc3)sc2-c2ccnc(C)c2)c1 [Example Compound 46-3, N-[4-(3,5-dimethylphenyl)-5-(2-methyl-4-pyridyl)-1,3-thiazol-2-yl]-6-methylnicotinamide] | 252 to 253 |
| CSc1ccc(-c2nc(-c3cc(C)cc(C)c3)c(-c3ccnc(C)c3)s2)cc1 [Example Compound 16-2, 4-(3,5-dimethylphenyl)-5-(2-methyl-4-pyridyl)-2-[4-(methylthio)phenyl]-1,3-thiazole] | 123 to 125 |
| Cc1cccc(-c2nc(N(C)C(=O)c3cccnc3)sc2-c2ccnc(NC3CCCC3)c2)c1 [Example Compound 42-9, N-[5-(2-cyclopentylamino-4-pyridyl)-4-(3-methylphenyl)-1,3-thiazol-2-yl]N-methylnicotinamide] | 148 |
| Cc1cccc(-c2nc(-c3ccc(Cl)cc3)sc2-c2ccnc(C)c2)c1 [Example Compound 14-2, 2-(4-chlorophenyl)-4-(3-methylphenyl)-5-(2-methyl-4-pyridyl)-1,3-thiazole] | 104 to 105 |
| CCc1nc(-c2cccc(Cl)c2)c(-c2ccnc(NC3CCCCC3)c2)s1 [Example Compound 36-10, 4-[4-(3-chlorophenyl)-2-ethyl-1,3-thiazol-5-yl]-N-cyclohexyl-2-pyridylamine] | 106 to 107 |
| Cc1cccc(-c2nc(N3CCNC3=O)sc2-c2ccnc(C)c2)c1 [Example Compound 66, 1-[4-(3-methylphenyl)-5-(2-methyl-4-pyridyl)-1,3-thiazol-2-yl]imidazolidin-2-one] | 200 to 201 |
| CCC(=O)Nc1cc(-c2sc(CC)nc2-c2cccs2)ccn1 [Example Compound 30-10, N-[4-[2-ethyl-4-(2-thienyl)-1,3-thiazol-5-yl]2-pyridyl]propionamide] | 187 to 188 |
| CCc1cccc(-c2nc(CC)sc2-c2ccnc(N)c2)c1 [Example Compound 20-8, 4-[2-ethyl-4-(3-ethylphenyl)-1,3-thiazol-5-yl]2-pyridylamine] | 128 to 129 |
| Cc1cccc(-c2nc(-c3ccccc3)sc2-c2ccnc(C)c2)c1 [Example Compound 14-6, 4-(3-methylphenyl)-5-(2-methyl-4-pyridyl)-2-phenyl-1,3-thiazole] | 79 to 80 |
| CCc1nc(-c2cccc(C)c2)c(-c2ccnc(NC(=O)OC(C)(C)C)c2)s1 [Example 3, 5-[2-(tert-butoxycarbonylamino)-4-pyridyl]-2-ethyl-4-(3-methylphenyl)-1,3-thiazole] | 162 to 163 |
